# In patent US6492399B1, “Pharmaceutical compositions and methods for use” (Targacept, Inc., priority 1998, dated 2002):
# Experiments:
# Assay type in all cases: biochemical
# Rat brain synaptosomes = assay: Neurotransmitter release from brain synaptosomes; settings: 10 μM ligand; percentage of release with 10 μM (S)-(-)-nicotine or 300 μM TMA
# Procedure: Neurotransmitter Release From Brain Synaptosomes
# Neurotransmitter release was measured using techniques similar to those previously published (Bencherif M, et al . . . JPET279: 1413-1421, 1996).
# Rat brain synaptosomes were prepared as follows: Female Sprague Dawley rats (100-200 g) were killed by decapitation after anesthesia with 70% CO2. Brains are dissected, and hippocampus, striatum, and thalamus isolated, and homogenized in 0.32 M sucrose containing 5 mM HEPES pH 7.4 using a glass/glass homogenizer. The tissue was then centrifuged for 1000×g for 10 minutes and the pellet discarded. The supernatant was centrifuged at 12000×g for 20 minutes. The resultant pellet was re-suspended in perfusion buffer (128 mM NaCl, 1.2 mM KH2PO4, 2.4 mM KCl, 3.2 mM CaCl2, 1.2 mM MgSO4, 25 mM HEPES, 1 mM Ascorbic acid, 0.01 mM pargyline HCl and 10 mM glucose pH 7.4) and centrifuged for 15 minutes at 25000×g. The final pellet was resuspended in perfusion buffer and placed in a water bath (37° C.) for 10 minutes. Radiolabeled neurotransmitter is added (30 μL ^3H DA, 20 μL ^3H NE, 10 μL ^3H glutamate) to achieve a final concentration of 100 nM, vortexed and placed in a water bath for additional 10 minutes. Tissue-loaded filters is placed onto 11-mm diameter Gelman A/E filters on an open-air support. After a 10-minute wash period, fractions are collected to establish the basal release and agonist applied in the perfusion stream. Further fractions were collected after agonist application to re-establish the baseline. The perfusate was collected directly into scintillation vials and released radioactivity was quantified using conventional liquid scintillation techniques. Release of neurotransmitter was determined in the presence of 10μM of various ligands and was expressed as a percentage of release obtained with a concentration of 10 μM (S)-(−)-nicotine or 300 μM TMA resulting in maximal effects.
# rubidium ion flux = assay: Determination of rubidium ion release (rubidium ion flux assay); settings: rubidium ion released relative to 300 uM tetramethylammonium ion
# Procedure: Determination of Rubidium Ion Release
# Rubidium release was measured using the techniques described in Bencherif et al., JPET, 279: 1413-1421 (1996). Reported EC50 values are expressed in nM, and Ema, values represent the amount of rubidium ion released relative to 300 uM tetramethylammonium ion, on a percentage basis.
# dopamine release = assay: Determination of dopamine release; settings: amount released relative to (S)-(-)-nicotine
# Procedure: Determination of Dopamine Release
# Dopamine release was measured using the techniques described in U.S. Pat. No. 5,597,919 to Dull et al. Release is expressed as a percentage of release obtained with a concentration of (S)-(−)-nicotine resulting in maximal effects. Reported EC50 values are expressed in nM, and Emax values represent the amount released relative to (S)-(−)-nicotine on a percentage basis.
Compound,neurotransmitter release Emax (Rat brain synaptosomes) [%],Emax in the rubidium ion flux assay (rubidium ion flux) [%],Emax for dopamine release (dopamine release) [%]
"CNC(C)CC=Cc1cncc(C(F)(F)F)c1 (centres unmarked) [Sample No. 10, (4E)-N-methyl-5-(3-(5-trifluoromethylpyridin)yl)-4-penten-2-amine]",50,0,–
CN[C@@H](C)C/C=C/c1cc(OC(C)C)c[n+]([O-])c1 [Sample No. 5],19,–,–
"CCSc1cncc(/C=C/CCNC)c1 [Sample No. 9, (3 E)-N-methyl-4-(3-(5-ethylthiopyridin)yl)-3-buten-1-amine hemigalactarate]",–,40,39
"CNC(C)CC=Cc1ccc[n+]([O-])c1 (centres unmarked) [Sample No. 8, (4E)-N-methyl-5-(3-(1-oxopyridin)yl)-4-penten-2-amine]",9,–,–
"CNC(C)CC=Cc1cncc(O)c1 (centres unmarked) [Sample No. 13, (4E)-N-methyl-5-(3-(5-hydroxypyridin)yl)-4-penten-2-amine sesquioxalate]",80,–,–
"CNCC/C=C/c1cncc(OCC(C)C)c1 [Sample No. 6, (3E)-N-methyl-4-(3-(5-isobutoxypyridin)yl)-3-buten-1-amine hemigalactarate]",–,15,25
"CNCC/C=C/c1cncc(C(=O)NCc2ccccc2)c1 [Sample No. 2, (3E)-N-methyl-N-[3-(5-(N-benzylcarboxamido)pyridin)yl]-3-buten-1-amine]",–,–,12
"CC(N)CC=Cc1cncc(OC(C)C)c1 (centres unmarked) [Sample No. 12, (4E)-5-(3-(5-isopropoxypyridin)yl)-4-penten-2-amine hemigalactarate]",32,–,–
